# Molecular target: lymphocyte-specific protein tyrosine kinase (LCK) (Homo sapiens, UniProt P06239)
# Experiment: ADP-Glo kinase assay; also fluorescence increase at […] nm on binding LCK after decaging of 3e, reversed by TC-S7003
# Assay type: biochemical
# Chain of lymphocyte-specific protein tyrosine kinase (LCK) (P06239 2-509): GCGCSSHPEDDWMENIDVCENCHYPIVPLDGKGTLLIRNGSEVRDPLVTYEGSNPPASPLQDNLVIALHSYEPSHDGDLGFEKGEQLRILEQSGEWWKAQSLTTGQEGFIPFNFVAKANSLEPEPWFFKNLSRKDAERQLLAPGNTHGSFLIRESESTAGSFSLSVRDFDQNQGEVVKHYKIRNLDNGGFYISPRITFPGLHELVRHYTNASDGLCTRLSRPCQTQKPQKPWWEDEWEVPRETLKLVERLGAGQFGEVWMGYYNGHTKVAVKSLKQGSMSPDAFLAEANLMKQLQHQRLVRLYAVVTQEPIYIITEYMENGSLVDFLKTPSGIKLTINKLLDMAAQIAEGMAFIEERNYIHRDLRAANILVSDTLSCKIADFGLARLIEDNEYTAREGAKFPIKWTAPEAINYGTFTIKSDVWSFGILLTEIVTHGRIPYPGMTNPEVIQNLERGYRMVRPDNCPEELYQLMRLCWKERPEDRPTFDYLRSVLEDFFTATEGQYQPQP
smiles,measurement,value
"CC(C)n1nc(C#Cc2ccc3cc(N(C)C)ccc3c2)c2c(N)ncnc21 [compound 1, LCK inhibitor 1]",IC50,2400 nM

# Reference: PMC11077529, “All-photonic kinase inhibitors: light-controlled release-and-report inhibition” (Chemical Science, 2024)
